Assay results: patent US20260199369A1, “COMPOUNDS FOR THE TREATMENT OF NEUROMUSCULAR DISORDERS” (NMD PHARMA A/S, priority 2022, published 2026)
Read-outs that look alike come from different tables or passages of the source.

System: isolated rat soleus muscles
Experiment: Measurement of force in an in vitro model: recovery of contractile force of isolated rat soleus nerve-muscle preparation after tubocurarine
Conditions: 40 min, read-out: Point increase (%): percentage increase of initial force that was restored
Description: The current disclosure relates to compounds that inhibit CIC-1 ion channels and increase muscle excitability and thereby improve muscle function in clinical conditions where muscle activation is failing. Such conditions result in loss of contractile function of skeletal muscle, weakness and excessive fatigue. In this series of experiments the compounds were tested for their ability to restore contractile function of isolated rat muscle when the neuromuscular transmission had been compromised akin to neuromuscular disorders.
Experimentally, soleus muscles from 4-5 wk old rats were isolated with the motor nerve remaining attached. The nerve-muscle preparations were mounted in experimental setups that enabled electrical stimulation of the motor nerve. Stimulation of the motor nerve led to activation of the muscle fibres and ensuing force production that was recorded. The nerve-muscle preparations were also in these experiments incubated in the standard Krebs Ringer (see example 15) and the solution was heated to 30° C. and continuously equilibrated with a mixture of 95% O2 and 5% CO2, pH ~7.4.
After mounting the nerve-muscle preparation in the experimental setup, the contractile function of the muscle was initially assessed under the control conditions. Sub-maximal concentration of tubocurarine (115 nM), an acetylcholine receptor antagonist, was then added to the experimental bath to impose partial inhibition of the ability of the motor nerve to activate the muscle fibres. The experimental condition mimics the failing neuromuscular transmission in a range of neuromuscular disorders. After addition of tubocurarine the contractile force declined over the next 90 minutes to 10-50% of the control force. The test compound was then added to obtain the required compound concentration in the bath and the contractile force recovered was measured. To quantify the ability of the compound to restore force the percentage of the initial force that was restored was determined after 40 mins of compound exposure and the point increase is reported in Tables 3 to 7.

[1] = 50 μM of test compound, tubocurarine 115 nM, after 40 mins of compound exposure
[2] = 25 μM of test compound, tubocurarine 115 nM, after 40 mins of compound exposure
[3] = 100 μM of test compound, tubocurarine 115 nM, after 40 mins of compound exposure

COc1c(Cl)cc2c(c1C(=O)O)N(C)CCO2 [Compound A-10, 7-Chloro-6-methoxy-4-methyl-3,4-dihydro-2H-1,4-benzoxazine-5-carboxylic acid]
activation at 10 µM: 36%

O=C(O)c1c(F)c(Cl)cc2c1NCCO2 [Compound A-11, 7-Chloro-6-fluoro-3,4-dihydro-2H-1,4-benzoxazine-5-carboxylic acid]
activation at 50 µM [1]: 23%

COc1c(Cl)cc2c(c1C(=O)O)OCCCN2C [Compound A-12, 7-Chloro-8-methoxy-5-methyl-2,3,4,5-tetrahydro-1,5-benzoxazepine-9-carboxylic acid]
activation at 50 µM: 54%

COc1c(Cl)cc2c(c1C(=O)O)OCCN2 [Compound A-14, 6-Chloro-7-methoxy-3,4-dihydro-2H-1,4-benzoxazine-8-carboxylic acid]
activation at 25 µM [2]: 28%

O=C(O)c1c(F)c(Cl)cc2c1OCCCN2 [Compound A-15, 7-Chloro-8-fluoro-2,3,4,5-tetrahydro-1,5-benzoxazepine-9-carboxylic acid]
activation at 50 µM: 51%

CCOc1c(Cl)cc2c(c1C(=O)O)OCCCN2C [Compound A-16, 7-chloro-8-ethoxy-5-methyl-2,3,4,5-tetrahydro-1,5-benzoxazepine-9-carboxylic acid]
activation at 50 µM [1]: 49%

O=C(O)c1c(F)c(Cl)cc2c1OCCN2CC1CC1 [Compound A-20, 6-Chloro-4-(cyclopropylmethyl)-7-fluoro-3,4-dihydro-2H-1,4-benzoxazine-8-carboxylic acid]
activation at 50 µM [1]: 22%

O=C(O)c1c(F)c(Cl)cc2c1OCCN2Cc1ccccc1 [Compound A-22, 4-Benzyl-6-chloro-7-fluoro-3,4-dihydro-2H-1,4-benzoxazine-8-carboxylic acid]
activation at 100 µM [3]: 15%

CC(C)Oc1c(Cl)cc2c(c1C(=O)O)OCCN2C [Compound A-24, 6-Chloro-4-methyl-7-(propan-2-yloxy)-3,4-dihydro-2H-1,4-benzoxazine-8-carboxylic acid]
activation at 50 µM: 34%

CSc1c(Cl)cc2c(c1C(=O)O)OCCN2C [Compound A-26, 6-Chloro-4-methyl-7-(methylsulfanyl)-3,4-dihydro-2H-1,4-benzoxazine-8-carboxylic acid]
activation at 25 µM: 28%

COc1c(C)cc2c(c1C(=O)O)OCCN2C [Compound A-31, 7-Methoxy-4,6-dimethyl-3,4-dihydro-2H-1,4-benzoxazine-8-carboxylic acid]
activation at 50 µM: 32%

COc1c(Cl)cc2c(c1C(=O)O)OCCN2C(C)C [Compound A-32, 6-Chloro-7-methoxy-4-(propan-2-yl)-3,4-dihydro-2H-1,4-benzoxazine-8-carboxylic acid]
activation at 50 µM [1]: 39%

COc1c(Cl)cc2c(c1C(=O)O)OCCN2CCc1ccccc1 [Compound A-33, 6-Chloro-7-methoxy-4-(2-phenylethyl)-3,4-dihydro-2H-1,4-benzoxazine-8-carboxylic acid]
activation at 50 µM [1]: 25%

COCC1CN(C)c2cc(Cl)c(OC)c(C(=O)O)c2O1 (stereo not drawn) [Compound A-35, 6-Chloro-7-methoxy-2-(methoxymethyl)-4-methyl-3,4-dihydro-2H-1,4-benzoxazine-8-carboxylic acid]
activation at 50 µM [1]: 21%

COc1c(Cl)cc2c(c1C(=O)O)OC(C)(C)CN2C [Compound A-37, 6-Chloro-7-methoxy-2,2,4-trimethyl-3,4-dihydro-2H-1,4-benzoxazine-8-carboxylic acid]
activation at 50 µM [1]: 51%

COCCN1CCOc2c1cc(Cl)c(F)c2C(=O)O [Compound A-38, 6-Chloro-7-fluoro-4-(2-methoxyethyl)-3,4-dihydro-2H-1,4-benzoxazine-8-carboxylic acid]
activation at 50 µM [1]: 17%

COc1c(Cl)cc2c(c1C(=O)O)OC1(CCC1)CN2C [Compound A-39, 6-Chloro-7-methoxy-4-methyl-3,4-dihydrospiro[1,4-benzoxazine-2,1′-cyclobutane]-8-carboxylic acid]
activation at 50 µM [1]: 35%

COc1c(Cl)cc2c(c1C(=O)O)OCCN2CCCc1ccco1 [Compound A-40, 6-Chloro-4-[3-(furan-2-yl)propyl]-7-methoxy-3,4-dihydro-2H-1,4-benzoxazine-8-carboxylic acid]
activation at 25 µM [2]: 14%

O=C(O)c1c(Cl)c(Cl)cc2c1OCCN2Cc1ccccc1 [Compound A-41, 4-Benzyl-6,7-dichloro-3,4-dihydro-2H-1,4-benzoxazine-8-carboxylic acid]
activation at 100 µM: 28%

COc1c(Cl)cc2c(c1C(=O)O)OCCN2Cc1cccs1 [Compound A-42, 6-chloro-7-methoxy-4-[(thiophen-2-yl)methyl]-3,4-dihydro-2H-1,4-benzoxazine-8-carboxylic acid]
activation at 25 µM [2]: 30%

COc1c(Cl)cc2c(c1C(=O)O)OCCN2Cc1nccs1 [Compound A-43, 6-Chloro-7-methoxy-4-[(1,3-thiazol-2-yl)methyl]-3,4-dihydro-2H-1,4-benzoxazine-8-carboxylic acid]
activation at 100 µM [3]: 14%

COc1c(Cl)c(F)c2c(c1C(=O)O)OCCN2C [Compound A-44, 6-Chloro-5-fluoro-7-methoxy-4-methyl-3,4-dihydro-2H-1,4-benzoxazine-8-carboxylic acid]
activation at 25 µM: 35%

O=C(O)c1c(F)c(Cl)cc2c1N(Cc1ccccc1)CCO2 [Compound A-45, 4-Benzyl-7-chloro-6-fluoro-3,4-dihydro-2H-1,4-benzoxazine-5-carboxylic acid]
activation at 10 µM: 43%

O=C(O)c1c(F)c(Cl)cc2c1OCCN2CC1CCC1 [Compound A-46, 6-Chloro-4-(cyclobutylmethyl)-7-fluoro-3,4-dihydro-2H-1,4-benzoxazine-8-carboxylic acid]
activation at 25 µM [2]: 8%

COc1c(Cl)cc2c(c1C(=O)O)OCCN2CCCc1nccs1 [Compound A-47, 6-Chloro-7-methoxy-4-[3-(1,3-thiazol-2-yl)propyl]-3,4-dihydro-2H-1,4-benzoxazine-8-carboxylic acid]
activation at 100 µM [3]: 14%

Cc1c(Cl)cc2c(c1C(=O)O)OCCN2C [Compound A-48, 6-chloro-4,7-dimethyl-3,4-dihydro-2H-1,4-benzoxazine-8-carboxylic acid]
activation at 25 µM: 23%

COc1c(Cl)cc2c(c1C(=O)O)OCCN2Cc1ccccc1 [Compound A-52, 4-Benzyl-6-chloro-7-methoxy-3,4-dihydro-2H-1,4-benzoxazine-8-carboxylic acid]
activation at 25 µM: 14%

COc1c(Cl)cc2c(c1C(=O)O)OCCN2CCc1cc(F)cc(F)c1 [Compound A-53, 6-Chloro-4-[2-(3,5-difluorophenyl)ethyl]-7-methoxy-3,4-dihydro-2H-1,4-benzoxazine-8-carboxylic acid]
activation at 25 µM [2]: 30%

CCCN1CCOc2cc(Cl)c(F)c(C(=O)O)c21 [Compound A-56, 7-Chloro-6-fluoro-4-propyl-3,4-dihydro-2H-1,4-benzoxazine-5-carboxylic acid]
activation at 35 µM (35 μM of test compound, tubocurarine 115 nM, after 40 mins of compound exposure): 48%

Cc1ccccc1CN1CCOc2cc(Cl)c(F)c(C(=O)O)c21 [Compound A-62, 7-Chloro-6-fluoro-4-[(o-tolyl)methyl]-3,4-dihydro-2H-1,4-benzoxazine-5-carboxylic acid]
activation at 10 µM (10 μM of test compound, tubocurarine 115 nM, after 40 mins of compound exposure): 28%
